Reference: US20230075856A1, “CYCLIC SULFAMIDE COMPOUNDS FOR TREATMENT OF HBV” (Assembly Biosciences, Inc., priority 2018, published 2023)

System: HBV viral load production from HepAD38 cells
Experiment: Viral production from HepAD38 cells: viral load in supernatant by qPCR of the HBV core sequence
Assay type: cell-based
Conditions: 5 days incubation, qPCR of supernatant HBV DNA vs DMSO control, read-out: viral load lowering EC50 (Activity)
Description: Assay Measuring Activity of Test Compounds on Viral Production from HepAD38 Cells
HepAD38 cells grown in a T-150 flask (Corning, cat #: 430825) with Growth Medium (DMEM/F12 […] (Hyclone, cat #: SH30023.02), 1× Pen/Strep (Invitrogen, cat #: 15140-122), 10% FBS (Tissue Culture Biologics, cat #: 101), […] G418 (Alfa Aesar, cat #: J62671), 1 μg/mL Tetracycline (Teknova, cat #: T3320)) were detached with 0.25% trypsin-EDTA (Invitrogen, cat #: 25200-056). Tetracycline-free treatment medium (15 mL DMEM/F12 (1:1) 1× Pen/step, with 2% FBS, Tet-system approved (Clontech, cat #: 631106) were then added to mix, transferred into a 50 ml conical tube (Falcon, cat #: 21008-918,) and spun at 1300 rpm for 5 min. Pelleted cells were then re-suspended/washed with 50 mL of 1×DPBS (Invitrogen, cat #: 14190-136) 2 times and 50 mL treatment medium twice. HepAD38 cells were then re-suspended with 10 mL of treatment medium, syringed and counted. Wells of 96-well clear bottom TC plate (Corning, cat #: 3904,) were seeded at 50,000 cells/well in 180 μL of treatment medium, and 20 μL of either 10% DMSO (Sigma, cat #: D4540) as controls or a 10× solution of test compounds in 10% DMSO in treatment media was added for a final compound concentration starting at 10 μM, and plates were incubated in 5% CO2 incubator at 37° C. for 5 days.
Subsequently viral load production was assayed by quantitative PCR (qPCR) of the HBV core sequence. PCR reaction mixture containing forward primers HBV-f 5′-CTGTGCCTTGGGTGGCTIT-3′ (IDT DNA), Reverse primers HBV-r 5′-[…]-3′ (IDT DNA), Fluorescent TaqMan™ Probes HBV-probe 5′-FAM/AGCTCCAAA/ZEN/[…]/3IABkFQ-3′ (IDT DNA), 10 μL/well of PerfeCTa® qPCR ToughMix® (Quanta Biosciences, Cat #: 95114-05K), and 6 μL/well of DEPC water (Alfa Aesar, cat #: J62087) was prepared. Four μL of supernatant was added to 16 μL of the reaction mixture in a qPCR plate (Applied Biosytems, Cat #: 4309849), sealed with a film (Applied Biosystems, Cat #: 4311971), centrifuged for a few seconds, and subsequently run on an Applied Biosystems VIIA7. The PCR mixture was incubated at 45° C. for 5 min, then 95° C. for 10 min, followed by 40 cycles of 10 seconds at 95° C. and 20 seconds at 60° C. Viral load was quantified against known HBV DNA standards by using ViiA™ 7 Software. Viral load in the supernatant from wells with treated cells were compared against viral load in supernatant from DMSO control wells (≥3 per plate). Cell viability assay was performed with CellTiter-Glo Luminescent Cell Viability Assay (Promega, cat #: G7573) with modification. Mixed appropriate amount of CellTiter-Glo (CTG) 1×DPBS in a 1:1 ratio, added 100 uL of the mixture to each well followed completely removal of all supernatant in each well without touching cell surface. Incubated the plate at room temperature for 10 min on an orbital shaker, and then read the plate with a plate reader (TECAN M1000 or Envision). EC50 or CC50 values were calculated through curve-fitting of the four-parameter nonlinear-logistic-regression model (GraphPad Prism or Dotmatics). CC50 values were all >10 μM.

SMILES	EC50
CN1C(C(=O)Nc2ccc(F)c(Cl)c2)CC(C(=O)NCc2ncc(-c3ccc(F)cc3)s2)NS1(=O)=O (single isomer, unassigned) [1153-ISOMER-B, N3-(3-chloro-4-fluoro-phenyl)-N5-[[5-(4-fluorophenyl)thiazol-2-yl]methyl]-2-methyl-1,1-dioxo-1,2,6-thiadiazinane-3,5-dicarboxamide]	100 to 10000 nM
CN1C(C(=O)Nc2ccc(F)c(Cl)c2)CC(C(=O)NC2CCN(c3cc(Cl)ccn3)CC2)NS1(=O)=O (single isomer, unassigned) [Compound 974-ISOMER-B, N3-(3-chloro-4-fluoro-phenyl)-N5-[1-(4-chloro-2-pyridyl)-4-piperidyl]-2-methyl-1,1-dioxo-1,2,6-thiadiazinane-3,5-dicarboxamide]	50 to 100 nM
CN1C(C(=O)Nc2ccc(F)c(Cl)c2)CC(C(=O)NCc2nc(C(F)(F)F)cs2)NS1(=O)=O (single isomer, unassigned) [1202-ISOMER-B, N3-(3-chloro-4-fluoro-phenyl)-2-methyl-1,1-dioxo-N5-[[4-(trifluoromethyl)thiazol-2-yl]methyl]-1,2,6-thiadiazinane-3,5-dicarboxamide]	< 50 nM
CN1C(C(=O)Nc2ccc(F)c(Cl)c2)CC(C(=O)NCc2nn(-c3ccccc3F)c3ccccc23)NS1(=O)=O (single isomer, unassigned) [1086-ISOMER-B, N3-(3-chloro-4-fluoro-phenyl)-N5-[[1-(2-fluorophenyl)indazol-3-yl]methyl]-2-methyl-1,1-dioxo-1,2,6-thiadiazinane-3,5-dicarboxamide]	100 to 10000 nM

Same assay, conditions: Hepatitis B virus, HePAD38, 120 h, 5 days incubation, qPCR of supernatant HBV DNA vs DMSO control, read-out: viral load lowering EC50 (Activity)

SMILES	EC50
CN1C(C(=O)Nc2ccc(F)c(Cl)c2)CC(C(=O)NC2CCN(C(=O)OCc3ccccc3)CC2)NS1(=O)=O (stereo not drawn) [Compound 852]	100 to 10000 nM
CN1C(C(=O)Nc2ccc(F)c(Cl)c2)CC(C(=O)NCc2nc(C(F)(F)F)cs2)NS1(=O)=O (single isomer, unassigned) [1202-ISOMER-A, N3-(3-chloro-4-fluoro-phenyl)-2-methyl-1,1-dioxo-N5-[[4-(trifluoromethyl)thiazol-2-yl]methyl]-1,2,6-thiadiazinane-3,5-dicarboxamide]	100 to 10000 nM
CN1C(C(=O)Nc2ccc(F)c(Cl)c2)CC(C(=O)NCc2ccccc2)NS1(=O)=O (stereo not drawn) [Compound 718]	< 50 nM
CN1C(C(=O)Nc2ccc(F)c(Cl)c2)CC(C(=O)NCc2ccccc2F)NS1(=O)=O (stereo not drawn) [Compound 819]	< 50 nM
CN1C(C(=O)Nc2ccc(F)c(Cl)c2)CC(C(=O)NC2CCN(C(=O)OCCCN3CCCCC3)CC2)NS1(=O)=O (stereo not drawn) [Compound 964]	100 to 10000 nM
C[C@H](NC(=O)C1CC(C(=O)Nc2ccc(F)c(Cl)c2)N(C)S(=O)(=O)N1)c1ccc(F)cc1 (stereo partly drawn) [Compound 493-S]	< 50 nM
Cc1c(CNC(=O)C2CC(C(=O)Nc3ccc(F)c(Cl)c3)N(C)S(=O)(=O)N2)nnn1-c1ccccc1 (stereo not drawn) [Compound 1148]	100 to 10000 nM
CN(C)CC(C)(C)COc1ccc(-c2ncc(CNC(=O)C3CC(C(=O)Nc4ccc(F)c(Cl)c4)N(C)S(=O)(=O)N3)s2)cc1 (stereo not drawn) [Compound 943]	< 50 nM
CN1C(C(=O)Nc2ccc(F)c(Cl)c2)CC(C(=O)NCc2ccn(-c3ccccc3)n2)NS1(=O)=O (single isomer, unassigned) [Compound 991-ISOMER-A, N3-(3-chloro-4-fluoro-phenyl)-2-methyl-1,1-dioxo-N5-[(1-phenylpyrazol-3-yl)methyl]-1,2,6-thiadiazinane-3,5-dicarboxamide]	100 to 10000 nM
CN1C(C(=O)Nc2ccc(F)c(Cl)c2)CC(C(=O)NCc2cnc(-c3ccc(OCCN4CCCCC4)cc3)s2)NS1(=O)=O (stereo not drawn) [Compound 922]	< 50 nM
Cc1cccc(CNC(=O)C2CC(C(=O)Nc3ccc(F)c(Cl)c3)N(C)S(=O)(=O)N2)n1 (single isomer, unassigned) [Compound 716-ISOMER-A, N3-(3-chloro-4-fluoro-phenyl)-2-methyl-N5-[(6-methyl-2-pyridyl)methyl]-1,1-dioxo-1,2,6-thiadiazinane-3,5-dicarboxamide]	< 50 nM
